Assay results from patent US5070092A, “Pyrroloindole derivatives related to DC-88A compound” (Kyowa Hakko Kogyo Co., Ltd., priority 1989, dated 1991).

What was measured:
[1] = prior art U.S. Pat. No. 4,169,888, EP-A-0154445, EP-A-0339681; cited from earlier work
Sarcoma 180 tumor cells = assay: Therapeutic Effect against Sarcoma 180 Tumor Cells; format: in vivo, male ddY-strain mice; settings: intravenous, seven days after implantation
Description: Five male ddY-strain mice each having a weight of 18 to 20 g were used for each group as test animals, and 5×10^5 Sarcoma 180 tumor cells were implanted subcutaneously into the animals at the axilla. Ond day after the implantation, 0.2 ml of physiological saline containing a test compound in the concentration indicated in Table 3 was intravenously administered to each mouse. T/C [T: average tumor volume (mm^3) of the groups treated with the test compound, C: that of the control group which received an intravenous administration of 0.2 ml of physiological saline] was determined seven days after the implantation.

dd strain male mice = assay: Acute Toxicity Test; format: in vivo; settings: intraperitoneal, 14 days after administration
Description: A test compound was intraperitoneally administered to dd strain male mice each weighing 20 ±1 g. MLD (the minimum lethal dose) was determined by observing the mortality for 14 days after the administration.

various bacteria = settings: prior art WO 87/06265, EP-A-0351865, JP 139590/89; cited from earlier work
[2] = tested on: lymphocytic leukemia P388; settings: prior art WO 87/06265, EP-A-0351865, JP 139590/89; cited from earlier work

Row | SMILES | Acute Toxicity (MLD), minimum lethal dose (dd strain male mice) | Sarcoma 180 T/C (average tumor volume, treated/control) (Sarcoma 180 tumor cells; dose 1.0 mg/kg) | also measured
1 | COc1c(O)c2c(c3cc(C(=O)N4CCc5c4c(O)c(OC)c4[nH]c(C(=O)N6CC7CC78C6=CC(=O)c6[nH]cc(C)c68)cc54)[nH]c13)CCN2C(N)=O (centres unmarked) [CC-1065] |  |  | anti-tumor activity [1]: exhibit anti-tumor activity
2 | COC(=O)c1c(C)[nH]c2c(O[Si](C)(C)C(C)(C)C)cc3c(c12)C(CBr)CN3C(=O)c1cc2cc(OC)c(OC)c(OC)c2[nH]1 (centres unmarked) [Compound 1] | 1.0 mg/kg |  | Sarcoma 180 T/C (average tumor volume, treated/control) (Sarcoma 180 tumor cells; dose 0.25 mg/kg): 0.043
3 | COC(=O)c1c(C)[nH]c2c(O)cc3c(c12)C(CCl)CN3C(=O)c1cc2cc(OC)c(OC)c(OC)c2[nH]1 (centres unmarked) [Compound 2] | 1.0 mg/kg |  | 
4 | COC(=O)c1c(C)[nH]c2c1C13CC1CN(C(=O)c1cc4cc(OC)c(OC)c(OC)c4[nH]1)C3=CC2=O (centres unmarked) [Compound 4] | 0.5 mg/kg |  | Sarcoma 180 T/C (average tumor volume, treated/control) (Sarcoma 180 tumor cells; dose 0.25 mg/kg): 0.21
5 | COC(=O)c1c(C)[nH]c2c(OC(=O)N(C)C)cc3c(c12)C(CBr)CN3C(=O)c1cc2cc(OC)c(OC)c(OC)c2[nH]1 (centres unmarked) [Compound 13] | 1.0 mg/kg | 0.063 | 
6 | COC(=O)c1c(C)[nH]c2c(OC(=O)N3CCCCC3)cc3c(c12)C(CBr)CN3C(=O)c1cc2cc(OC)c(OC)c(OC)c2[nH]1 (centres unmarked) [Compound 14] | 1.0 mg/kg | 0.098 | Sarcoma 180 T/C (average tumor volume, treated/control) (Sarcoma 180 tumor cells; dose 0.50 mg/kg): 0.20
7 | COC(=O)c1c(C)[nH]c2c(OC(=O)N3CCCC3)cc3c(c12)C(CBr)CN3C(=O)c1cc2cc(OC)c(OC)c(OC)c2[nH]1 (centres unmarked) [Compound 15] | 1.0 mg/kg | 0.088 | Sarcoma 180 T/C (average tumor volume, treated/control) (Sarcoma 180 tumor cells; dose 0.50 mg/kg): 0.21
8 | COC(=O)c1c(C)[nH]c2c(OC(=O)N3CCN(C)CC3)cc3c(c12)C(CBr)CN3C(=O)c1cc2cc(OC)c(OC)c(OC)c2[nH]1 (centres unmarked) [Compound 16] | 1.0 mg/kg |  | Sarcoma 180 T/C (average tumor volume, treated/control) (Sarcoma 180 tumor cells; dose 0.50 mg/kg, 0.5 mg/kg): 0.24
9 | COC(=O)c1c(C)[nH]c2c(OC(=O)N3CCN(C)CC3)cc3c(c12)C(CBr)CN3C(=O)c1cc2cc(OC)c(OC)c(OC)c2[nH]1 (centres unmarked) [Compound 18] | 0.84 mg/kg |  | Sarcoma 180 T/C (average tumor volume, treated/control) (Sarcoma 180 tumor cells; dose 0.50 mg/kg, 0.5 mg/kg): 0.14
10 | COC(=O)C1(C)NC2=C(C1=O)C13CC1CN(C(=O)c1cc4cc(OC)c(OC)c(OC)c4[nH]1)C3=CC2=O (centres unmarked) [DC-88A] |  |  | antibacterial activity (various bacteria): antibacterial activity against various bacteria; anti-tumor activity against lymphocytic leukemia P388 [2]: anti-tumor activity against lymphocytic leukemia P388
